We go through four compounds from US20180318381A1, “Methods of Treatment of Rhabdomyolysis” (University of Pittsburgh - Of the Commonwealth System of …, priority 2015, published 2018).

The test system of experiment [1] is amyotrophic lateral sclerosis mouse model. The note with it: ALS mouse model; cited from earlier work.
Another experiment concerns mice treated with azide. The note with it: supplementation at the same time as azide; cited from earlier work.
The test system of a further experiment is Friedrich's ataxia cells. The note with it: in response to oxidative stress; cited from earlier work.

For `CCNC(=O)[C@]12CCC(C)(C)C[C@H]1[C@H]1C(=O)C=C3[C@@]4(C)C=C(C#N)C(=O)C(C)(C)[C@@H]4CC[C@@]3(C)[C@]1(C)CC2` [CDDO-EA, 2-cyano-3,12-dioxooleana-1,9-dien-28-oic acid-ethyl amide], the survival result in experiment [1] is reported as “improve survival”.

As for `CC(=O)OC[C@H]1O[C@@H](n2ccc(=O)[nH]c2=O)[C@H](OC(C)=O)[C@@H]1OC(C)=O` [PN401, uridine triacetate], in the experiment on mice treated with azide, the “survival of the animals” value was “improved survival”.

Regarding `CC1(C)CC[C@]2(NC(=O)C(C)(F)F)CC[C@]3(C)[C@H](C(=O)C=C4[C@@]5(C)C=C(C#N)C(=O)C(C)(C)[C@@H]5CC[C@]43C)[C@@H]2C1` [RTA408, N-(2-cyano-3,12-dioxo-28-noroleana-1,9(11)-dien-17-yl)-2,2-difluoro-propanamide], in the experiment on Friedrich's ataxia cells, the antioxidant gene expression entry is recorded as “improve antioxidant gene expression”.

For the compound `CCCCCCC(=O)OCC(COC(=O)CCCCCC)OC(=O)CCCCCC` [triheptanoin, 1,3-di(heptanoyloxy)propan-2-yl heptanoate], the “decrease in peak CK levels (trend)” value in the experiment with patients with LC-FAODs (7 subjects with peak CK before and after treatment, P=0.1279) stood at 68%. The “decline in hypoglycemia event rate per year” value in the experiment with patients with LC-FAODs (9 subjects with hypoglycemia problems, P=0.0091) was 96%. For the same compound, in the experiment on patients with LC-FAODs (LC-FAOD patients, FIG. 14), the hospitalizations result is listed as “reduced hospitalizations”, the hypoglycemic hospitalizations result is listed as “nearly eliminated”, the “number of days of hospital stay if hospitalized” value was “reduced” and the “number of hospitalization days with rhabdomyolysis” value is given as “decreased”. Moreover, in the experiment on patients with LC-FAODs (LC-FAOD patients, FIG. 14), the “number of hospitalizations with rhabdomyolysis” value was “did not reduce”. Besides, the “peak CK levels” value in the experiment on patients with LC-FAODs (after treatment (from 85,855 before), 7 subjects) is given as 27,597 units. Further, the “hypoglycemia event rate per year” value with patients with LC-FAODs (after treatment (vs 0.92 before), n=9) turned out to be 0.04 per year. The hypoglycemia-related hospitalization days/year in the experiment on patients with LC-FAODs (after treatment (vs 8.42 before), n=9, P=0.0257) was found to be 0.18 days/year. The compound further registered a hospitalization event rate in the experiment with patients with LC-FAODs (after triheptanoin initiation (vs 1.94 before), n=16) of 1.26. Besides, the rhabdomyolysis hospitalization days/year in the experiment on patients with LC-FAODs (after triheptanoin initiation (vs 5.94 before), n=9, P=0.1224) is recorded as 2.36 days/year. The mean hospitalization days/year with patients with LC-FAODs (after triheptanoin initiation (vs 17.55 before), n=15) worked out at 5.76 days/year. Besides, the hypoglycemia in patients result with patients with LC-FAODs (patients having long chain FAODs) is recorded as “essentially eliminates hypoglycemia”. In addition, the episodes of rhabdomyolysis entry with patients with LC-FAODs (patients having long chain FAODs on triheptanoin) is “continue to have episodes of rhabdomyolysis”. Besides, in the experiment on patients with LC-FAODs (period after triheptanoin initiation vs before, n=15, P=0.0242), the “decrease in mean hospitalization days/year” value amounted to 67%.
